Assay results from the CheMixHub viscosity set.
± gives the uncertainty stated by the source.

Test: xn = mol fraction of the nth substance listed

CCCCCCCCCCCCCC + CCCC(C)O
viscosity [mPa·s], 101.33 kPa
Details	x1 = 0.0999	x1 = 0.2002	x1 = 0.3001	x1 = 0.3987	x1 = 0.5009	x1 = 0.6004	x1 = 0.6996	x1 = 0.8014	x1 = 0.9002
293.15 K	2.923 ± 0.29	2.557 ± 0.26	2.314 ± 0.23	2.191 ± 0.22	2.117 ± 0.21	2.1 ± 0.21	2.114 ± 0.21	2.141 ± 0.21	2.177 ± 0.22
303.15 K	2.381 ± 0.24	2.111 ± 0.21	1.928 ± 0.19	1.823 ± 0.18	1.752 ± 0.18	1.741 ± 0.17	1.748 ± 0.18	1.76 ± 0.18	1.787 ± 0.18
313.15 K	1.742 ± 0.18	1.58 ± 0.16	1.476 ± 0.15	1.41 ± 0.14	1.391 ± 0.14	1.392 ± 0.14	1.41 ± 0.14	1.441 ± 0.14	1.472 ± 0.15
323.15 K	1.362 ± 0.14	1.266 ± 0.13	1.192 ± 0.12	1.152 ± 0.12	1.148 ± 0.12	1.153 ± 0.12	1.171 ± 0.12	1.21 ± 0.12	1.24 ± 0.12

O=[N+]([O-])c1ccccc1 + CCCCCCC
101.3 kPa
Details	viscosity [mPa·s]
293.15 K, x1 = 0.149	0.482 ± 0.004
293.15 K, x1 = 0.2214	0.532 ± 0.004
293.15 K, x1 = 0.2746	0.58 ± 0.004
293.15 K, x1 = 0.3291	0.631 ± 0.005
293.15 K, x1 = 0.4214	0.759 ± 0.007
293.15 K, x1 = 0.4477	0.805 ± 0.007
293.15 K, x1 = 0.4729	0.845 ± 0.008
293.15 K, x1 = 0.4886	0.862 ± 0.008
293.15 K, x1 = 0.5628	0.937 ± 0.007
293.15 K, x1 = 0.6392	1.016 ± 0.008
293.15 K, x1 = 0.7954	1.313 ± 0.01
293.15 K, x1 = 0.8751	1.517 ± 0.01
293.16 K, x1 = 0.383	0.845 ± 0.009
293.57 K, x1 = 0.383	0.831 ± 0.008
294.17 K, x1 = 0.383	0.812 ± 0.007
295.09 K, x1 = 0.383	0.794 ± 0.006
295.15 K, x1 = 0.149	0.471 ± 0.004
295.15 K, x1 = 0.2214	0.517 ± 0.004
295.15 K, x1 = 0.2746	0.562 ± 0.004
295.15 K, x1 = 0.3291	0.611 ± 0.005
295.15 K, x1 = 0.4214	0.72 ± 0.006
295.15 K, x1 = 0.4477	0.759 ± 0.006
295.15 K, x1 = 0.4729	0.79 ± 0.006
295.15 K, x1 = 0.4886	0.808 ± 0.006
295.15 K, x1 = 0.5628	0.896 ± 0.007
295.15 K, x1 = 0.6392	0.984 ± 0.007
295.15 K, x1 = 0.7954	1.274 ± 0.009
295.15 K, x1 = 0.8751	1.475 ± 0.01
296.42 K, x1 = 0.383	0.768 ± 0.006
298.66 K, x1 = 0.383	0.736 ± 0.006
299.15 K, x1 = 0.149	0.451 ± 0.003
299.15 K, x1 = 0.2214	0.498 ± 0.004
299.15 K, x1 = 0.2746	0.539 ± 0.004
299.15 K, x1 = 0.3291	0.579 ± 0.004
299.15 K, x1 = 0.4214	0.67 ± 0.005
299.15 K, x1 = 0.4477	0.702 ± 0.005
299.15 K, x1 = 0.4729	0.73 ± 0.005
299.15 K, x1 = 0.4886	0.746 ± 0.006
299.15 K, x1 = 0.5628	0.836 ± 0.006
299.15 K, x1 = 0.6392	0.926 ± 0.006
299.15 K, x1 = 0.7954	1.201 ± 0.008
299.15 K, x1 = 0.8751	1.385 ± 0.009
305.15 K, x1 = 0.149	0.423 ± 0.003
305.15 K, x1 = 0.2214	0.463 ± 0.003
305.15 K, x1 = 0.2746	0.503 ± 0.004
305.15 K, x1 = 0.3291	0.536 ± 0.004
305.15 K, x1 = 0.4214	0.615 ± 0.004
305.15 K, x1 = 0.4477	0.643 ± 0.005
305.15 K, x1 = 0.4729	0.678 ± 0.005
305.15 K, x1 = 0.4886	0.681 ± 0.005
305.15 K, x1 = 0.5628	0.764 ± 0.005
305.15 K, x1 = 0.6392	0.85 ± 0.006
305.15 K, x1 = 0.7954	1.104 ± 0.007
305.15 K, x1 = 0.8751	1.26 ± 0.008
313.15 K, x1 = 0.149	0.391 ± 0.003
313.15 K, x1 = 0.2214	0.425 ± 0.003
313.15 K, x1 = 0.2746	0.459 ± 0.004
313.15 K, x1 = 0.3291	0.491 ± 0.004
313.15 K, x1 = 0.4214	0.558 ± 0.004
313.15 K, x1 = 0.4477	0.58 ± 0.004
313.15 K, x1 = 0.4729	0.602 ± 0.005
313.15 K, x1 = 0.4886	0.613 ± 0.004
313.15 K, x1 = 0.5628	0.689 ± 0.005
313.15 K, x1 = 0.6392	0.77 ± 0.005
313.15 K, x1 = 0.7954	0.984 ± 0.007
313.15 K, x1 = 0.8751	1.124 ± 0.008

ClC(Cl)=C(Cl)Cl + COc1ccccc1
303.15 K, 101.3 kPa
Details	viscosity [mPa·s]
x2 = 0.0193	0.793 ± 0.013
x2 = 0.039	0.79 ± 0.013
x2 = 0.0561	0.792 ± 0.013
x2 = 0.1158	0.781 ± 0.013
x2 = 0.189	0.776 ± 0.013
x2 = 0.2303	0.778 ± 0.013
x2 = 0.2742	0.783 ± 0.013
x2 = 0.3317	0.787 ± 0.013
x2 = 0.3643	0.79 ± 0.013
x2 = 0.4286	0.801 ± 0.013
x2 = 0.4726	0.812 ± 0.013
x2 = 0.6096	0.831 ± 0.013
x2 = 0.6829	0.848 ± 0.014
x2 = 0.7292	0.856 ± 0.014
x2 = 0.7745	0.862 ± 0.014
x2 = 0.8665	0.878 ± 0.014
x2 = 0.8991	0.885 ± 0.014
x2 = 0.9485	0.899 ± 0.014
